# Tests used:
# Assay in all cases: MIC by microdilution
# Type in all cases: cell-based
# [1] = system: E. coli (Migula) Castellani and Chalmers (ATCC 25922); conditions: Escherichia coli, ATCC25922, read-out: MIC, EC
# [2] = system: S. aureus subsp. aureus Rosenbach (ATCC 25923); conditions: Staphylococcus aureus, ATCC25923, read-out: MIC, SA
# [3] = system: P. aeruginosa (Schroeter) Migula (ATCC 27853); conditions: Pseudomonas aeruginosa, ATCC27853, read-out: MIC, PA
# [4] = system: Salmonella enterica subsp. enterica serovar Typhimurium (ATCC 14028); conditions: ATCC14028|TYPHIMURIUM, read-out: MIC, ST
smiles,measurement,setting,value
CNC(C)C1CCC(N)C(OC2C(N)CC(N)C(OC3OCC(C)(O)C(NC)C3O)C2O)O1 (stereo not shown) [gentamicin],MIC,[1],8 mg/L
same,MIC,[2],4 mg/L
same,MIC,[3],4 mg/L
same,MIC,[4],2 mg/L
